Measured values reported in the supplement of paper PMC6335503.
± gives the standard deviation of the averaged measurements.

Experiments:
Assay in all cases: cell viability, percent of DMSO control (CellTiter-Glo); higher = more viable cells
Settings in all cases: 72 h
[1] = system: DFTD cell line T1 (06/2887)
Procedure: (§1)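 Eight-point dose titration of 41 screen hits in triplicate wells on four Tasmanian devil DFTD tumour cell lines (T1-T4) and devil fibroblasts, 384-well plates. Viability was read by CellTiter-Glo (ATP) after 72 h at 37 °C. Percent of control per plate: DMSO wells = 100%, positive-control wells = 0%.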

[2] = system: DFTD cell line T4 (07/0192)
Procedure: as §1

[3] = system: DFTD cell line T2 (05/2569)
Procedure: as §1

[4] = system: DFTD cell line T3 (06/0368)
Procedure: as §1

Row | Compound | cell viability ([1]; 0.00617 µM) | cell viability ([1]; 0.0185 µM) | cell viability ([1]; 0.0556 µM) | cell viability ([1]; 0.166667 µM) | cell viability ([1]; 0.5 µM) | cell viability ([1]; 1.5 µM) | cell viability ([1]; 4.5 µM) | cell viability ([1]; 13.5 µM) | cell viability ([2]; 0.00617 µM) | cell viability ([2]; 0.0185 µM) | cell viability ([2]; 0.0556 µM) | cell viability ([2]; 0.166667 µM) | cell viability ([2]; 0.5 µM) | cell viability ([2]; 1.5 µM) | cell viability ([2]; 4.5 µM) | cell viability ([2]; 13.5 µM) | cell viability ([3]; 0.00617 µM) | cell viability ([3]; 0.0185 µM) | cell viability ([3]; 0.0556 µM) | cell viability ([3]; 0.166667 µM) | cell viability ([3]; 0.5 µM) | cell viability ([3]; 1.5 µM) | cell viability ([3]; 4.5 µM) | cell viability ([3]; 13.5 µM) | cell viability ([4]; 0.00617 µM) | cell viability ([4]; 0.0185 µM) | cell viability ([4]; 0.0556 µM) | cell viability ([4]; 0.166667 µM) | cell viability ([4]; 0.5 µM) | cell viability ([4]; 1.5 µM) | cell viability ([4]; 4.5 µM) | cell viability ([4]; 13.5 µM)
1 | Cn1nc(-c2ccccn2)nc2c(=O)n(C)c(=O)nc1-2 | 153 ± 34% | 70.2 ± 59% | 125 ± 22% | 132 ± 5% | 135 ± 44% | 81.7 ± 2.8% | -6.25 ± 9.7% | 0.0591 ± 4.2% | 141 ± 24% | 92.9 ± 34% | 114 ± 12% | 109 ± 11% | 118 ± 31% | 74.2 ± 14% | -7.19 ± 8.8% | 0.999 ± 4.1% | 135 ± 19% | 102 ± 31% | 104 ± 19% | 124 ± 18% | 132 ± 42% | 84.5 ± 6.9% | -4.38 ± 1.7% | -0.281 ± 3.3% | 117 ± 31% | 94.9 ± 27% | 119 ± 9.9% | 126 ± 16% | 107 ± 26% | 72.9 ± 4.2% | -7.67 ± 4% | -1.39 ± 4.7%
2 | C=CC(=O)N1CCC[C@@H](n2nc(-c3ccc(Oc4ccccc4)cc3)c3c(N)ncnc32)C1 | 112 ± 37% | 123 ± 32% | 71.6 ± 14% | 37.3 ± 6.5% | 26.6 ± 4.3% | 23.2 ± 11% | 28.6 ± 13% | 14 ± 10% | 114 ± 25% | 85 ± 27% | 79.7 ± 14% | 51.3 ± 9.8% | 22.6 ± 4.5% | 20.4 ± 12% | 21.4 ± 8.5% | 12.3 ± 8.3% | 103 ± 33% | 124 ± 36% | 83.4 ± 14% | 51.2 ± 12% | 32.3 ± 1.1% | 29.5 ± 6.4% | 30 ± 9.6% | 17.3 ± 12% | 120 ± 38% | 94.2 ± 29% | 95.2 ± 22% | 65.1 ± 9.7% | 38.9 ± 6.9% | 36.7 ± 11% | 34.5 ± 8.3% | 24.5 ± 11%
3 | O=c1c(=NNc2nnn[nH]2)c(=O)c2ccccc12 | 111 ± 30% | 134 ± 16% | 108 ± 24% | 109 ± 13% | 100 ± 8.9% | 6.85 ± 14% | -3.59 ± 8.9% | -9.34 ± 11% | 112 ± 34% | 109 ± 63% | 107 ± 15% | 113 ± 5.9% | 99.9 ± 11% | -4.87 ± 8% | -0.683 ± 8.2% | -9.39 ± 10% | 114 ± 14% | 133 ± 22% | 102 ± 25% | 96.4 ± 15% | 89.2 ± 11% | 1.91 ± 9.7% | -2.74 ± 7.9% | -6.89 ± 10% | 123 ± 33% | 108 ± 57% | 105 ± 18% | 110 ± 22% | 99.8 ± 8.1% | -0.871 ± 9.3% | -0.369 ± 11% | -6.58 ± 12%
4 | CCN1CCN(Cc2ccc(-c3cc4c(N[C@H](C)c5ccccc5)ncnc4[nH]3)cc2)CC1 [AEE788] | 77.9 ± 22% | 87.5 ± 17% | 119 ± 44% | 61.2 ± 11% | 35.4 ± 11% | 23.9 ± 7.3% | 29.4 ± 13% | 17.5 ± 3.5% | 99.1 ± 11% | 90 ± 14% | 104 ± 35% | 83.8 ± 10% | 43.4 ± 4.7% | 25.1 ± 11% | 24.8 ± 12% | 23.4 ± 5.6% | 77.9 ± 14% | 96 ± 16% | 123 ± 38% | 85.2 ± 15% | 46.3 ± 12% | 25.8 ± 7.8% | 21 ± 7% | 6.37 ± 3.9% | 93.5 ± 15% | 110 ± 21% | 123 ± 27% | 77.2 ± 11% | 49.8 ± 13% | 34.2 ± 11% | 36.4 ± 13% | 28.6 ± 4.9%
5 | COc1cc2ncnc(Nc3cccc(Cl)c3)c2cc1OC [AG-1478] | 117 ± 7.2% | 115 ± 7.9% | 106 ± 36% | 109 ± 19% | 54.7 ± 7.8% | 39.2 ± 9.1% | 32.7 ± 11% | 28.9 ± 9.3% | 119 ± 21% | 110 ± 20% | 104 ± 24% | 128 ± 18% | 89.3 ± 22% | 68.1 ± 18% | 38 ± 7% | 32.3 ± 11% | 99.4 ± 20% | 105 ± 21% | 108 ± 13% | 114 ± 12% | 81 ± 12% | 49.2 ± 11% | 40.2 ± 16% | 34 ± 5.2% | 125 ± 31% | 105 ± 3.8% | 103 ± 18% | 117 ± 16% | 83.2 ± 17% | 63.5 ± 11% | 53.2 ± 13% | 46.9 ± 9.5%
6 | COc1cc2ncnc(Nc3cccc(Cl)c3F)c2cc1OC(=O)N1CCN(C)C[C@H]1C [AZD3759] | 96.9 ± 29% | 110 ± 19% | 113 ± 33% | 95.3 ± 21% | 59.1 ± 10% | 38.1 ± 7.5% | 22.6 ± 2.7% | 31.5 ± 6.1% | 102 ± 12% | 96.5 ± 23% | 111 ± 24% | 109 ± 10% | 78.4 ± 14% | 55 ± 5.2% | 28.7 ± 6.5% | 25 ± 3.8% | 97.6 ± 42% | 107 ± 12% | 131 ± 45% | 121 ± 35% | 81.8 ± 18% | 48.9 ± 4.4% | 22.9 ± 7.3% | 32 ± 4.3% | 96.2 ± 18% | 89.5 ± 4.7% | 122 ± 15% | 107 ± 34% | 76.4 ± 20% | 52.8 ± 6.2% | 37.7 ± 7% | 41.7 ± 7.3%
7 | CNC(=O)CN1CCC(Oc2cc3c(Nc4cccc(Cl)c4F)ncnc3cc2OC)CC1 [AZD8931 (Sapitinib)] | 116 ± 38% | 104 ± 20% | 84 ± 28% | 37.9 ± 12% | 24.9 ± 7.9% | 22.8 ± 14% | 19.1 ± 16% | 21.6 ± 6.3% | 107 ± 17% | 111 ± 31% | 80.8 ± 34% | 59.7 ± 10% | 31.9 ± 5% | 20.9 ± 16% | 14 ± 10% | 8.86 ± 12% | 123 ± 62% | 111 ± 22% | 98.5 ± 55% | 62.1 ± 16% | 46.5 ± 18% | 27 ± 13% | 19.7 ± 17% | 24.2 ± 2.2% | 112 ± 38% | 95.2 ± 19% | 102 ± 44% | 55.9 ± 17% | 43.4 ± 17% | 29 ± 7.6% | 24.9 ± 10% | 32.6 ± 2.4%
